Measurements as given in ChEMBL document CHEMBL3352623, “Improved antiproliferative activity of 1,3,4-thiadiazole-containing histone deacetylase (HDAC) inhibitors by introduction of the heteroaromatic surface recognition motif” (Bioorg Med Chem, 2014).

Experiments:
[1] = biological target: Histone deacetylase (HDAC1 and HDAC2) (Homo sapiens, UniProt Q13547+Q92769); experiment: Inhibition of HDAC1/HDAC2 in human HeLa cell extract incubated for 5 mins prior to substrate addition measured after 30 mins by microtitre plate reader analysis; format: cell-based
MDA-MB-231 = experiment: Antiproliferative activity against human MDA-MB-231 cells after 48 hrs by MTT assay; format: functional, cell-based; details: MDA-MB-231, 48 h
K562 = experiment: Antiproliferative activity against human K562 cells after 48 hrs by MTT assay; format: functional, cell-based; details: K562, 48 h
[2] = Antiproliferative activity against human PC3 cells after 48 hrs by MTT assay; format: functional, cell-based; details: PC-3, 48 h

For `O=C(CCCCCC(=O)Nc1nnc(-c2ccc(Br)cc2)s1)NO`, the IC50 [1] was 1.285 µM.
With `O=C(CCCCCC(=O)Nc1nnc(-c2ccc(N3CCOCC3)cc2)s1)NO` the IC50 [1] was > 5 µM.
In the case of `CN(C)c1ccc(-c2nnc(NC(=O)CCCCCC(=O)NO)s2)cc1`, the IC50 [1] is reported as > 5 µM.
Work on `COc1ccc(-c2nnc(NC(=O)CCCCCC(=O)NO)s2)cc1` yielded an IC50 [1] of 0.437 µM.
`COc1ccc(-c2nnc(NC(=O)CCCCCC(=O)NO)s2)cc1OC` gave an IC50 [1] of 0.487 µM.
Work on `Cc1ccc(-c2nnc(NC(=O)CCCCCC(=O)NO)s2)cc1` yielded an IC50 [1] of 0.422 µM.
With `O=C(CCCCCC(=O)Nc1nnc(-c2ccc(-c3ccccc3)cc2)s1)NO` the IC50 [1] was > 5 µM.
`O=C(CCCCCC(=O)Nc1nnc(-c2ccc(F)cc2)s1)NO` gave an IC50 [1] of 0.741 µM.
Work on `O=C(CCCCCC(=O)Nc1nnc(-c2ccc(Cl)cc2)s1)NO` yielded an IC50 [1] of 0.988 µM.
In the case of `O=C(CCCCCC(=O)Nc1nnc(-c2cccc(Cl)c2)s1)NO`, the IC50 [1] is reported as 0.847 µM.
For `O=C(CCCCCC(=O)Nc1nnc(-c2ccccc2Cl)s1)NO`, the IC50 [1] was 0.507 µM.
Compound `O=C(CCCCCC(=O)Nc1nnc(-c2ccc(I)cc2)s1)NO` has an IC50 [1] of 0.875 µM.
Work on `CS(=O)(=O)c1ccc(-c2nnc(NC(=O)CCCCCC(=O)NO)s2)cc1` yielded an IC50 [1] of 0.721 µM.
In the case of `O=C(CCCCCC(=O)Nc1nnc(-c2ccc([N+](=O)[O-])cc2)s1)NO`, the IC50 [1] is reported as 0.709 µM.
Compound `O=C(CCCCCC(=O)Nc1nnc(-c2ccc(C(F)(F)F)cc2)s1)NO` has an IC50 [1] of 1.154 µM.
For `O=C(CCCCCCC(=O)Nc1nnc(-c2ccc(N3CCOCC3)cc2)s1)NO`, the IC50 [1] was > 5 µM.
In the case of `O=C(CCCCCCC(=O)Nc1nnc(-c2ccc(-c3ccccc3)cc2)s1)NO`, the IC50 [1] is reported as > 5 µM.
Work on `O=C(CCCCCCC(=O)Nc1nnc(-c2cccc(Br)c2)s1)NO` yielded an IC50 [1] of 1.215 µM.
`O=C(CCCCCCC(=O)Nc1nnc(-c2ccccc2Br)s1)NO` showed an IC50 [1] of 0.526 µM.
In the case of `O=C(CCCCCCC(=O)Nc1nnc(-c2ccc(I)cc2)s1)NO`, the IC50 [1] is reported as > 5 µM.
`CS(=O)(=O)c1ccc(-c2nnc(NC(=O)CCCCCCC(=O)NO)s2)cc1` showed an IC50 [1] of 0.598 µM.
With `O=C(CCCCCCC(=O)Nc1nnc(-c2ccc(C(F)(F)F)cc2)s1)NO` the IC50 [1] was > 5 µM.
`O=C(CCCCCC(=O)Nc1nnc(-c2cccc3ccccc23)s1)NO` gave an IC50 [1] of 3.186 µM.
In the case of `O=C(CCCCCC(=O)Nc1nnc(-c2ccc3ccccc3c2)s1)NO`, the IC50 [1] is reported as > 5 µM.
With `O=C(CCCCCC(=O)Nc1nnc(-c2cccnc2)s1)NO` the IC50 [1] was 0.325 µM, the IC50 (MDA-MB-231) was 11.7 µM and the IC50 (K562) was > 60 µM. The IC50 [2] was 54.4 µM.
With `O=C(CCCCCC(=O)Nc1nnc(-c2ccncc2)s1)NO` the IC50 [1] was 0.411 µM, the IC50 (MDA-MB-231) was 40.1 µM and the IC50 (K562) was > 60 µM. The IC50 [2] was > 60 µM.
With `O=C(CCCCCC(=O)Nc1nnc(-c2ccco2)s1)NO` the IC50 [1] was 0.434 µM.
With `O=C(CCCCCC(=O)Nc1nnc(-c2cccs2)s1)NO` the IC50 [1] was 0.411 µM, the IC50 (MDA-MB-231) was 15.2 µM and the IC50 (K562) was > 60 µM. The IC50 [2] was > 60 µM.
With `O=C(CCCCCCC(=O)Nc1nnc(-c2cccc3ccccc23)s1)NO` the IC50 [1] was > 5 µM.
With `O=C(CCCCCCC(=O)Nc1nnc(-c2ccc3ccccc3c2)s1)NO` the IC50 [1] was > 5 µM.
For `O=C(CCCCCCC(=O)Nc1nnc(-c2cccnc2)s1)NO`, the IC50 [1] was 0.386 µM, the IC50 (MDA-MB-231) was 1.87 µM and the IC50 (K562) was 4.36 µM. For the same compound, the IC50 [2] was 7.98 µM.
With `O=C(CCCCCCC(=O)Nc1nnc(-c2ccncc2)s1)NO` the IC50 [1] was 0.286 µM, the IC50 (MDA-MB-231) was 4.69 µM and the IC50 (K562) was 4.15 µM. It also gave an IC50 [2] of 7.75 µM.
Work on `O=C(CCCCCCC(=O)Nc1nnc(-c2ccco2)s1)NO` yielded an IC50 [1] of 0.436 µM.
`O=C(CCCCCCC(=O)Nc1nnc(-c2cccs2)s1)NO` gave an IC50 [1] of 0.31 µM, an IC50 (MDA-MB-231) of 1.21 µM and an IC50 (K562) of 1.56 µM. The IC50 [2] was 3.6 µM.
Compound `O=C(CCCCCCC(=O)Nc1ccccc1)NO` [VORINOSTAT] has an IC50 (MDA-MB-231) of 2.29 µM.
